# Source: US20260215432A1, “ANTIMICROBIAL CONJUGATED OLIGOELECTROLYTES AND METHODS THEREOF” (National University of Singapore, priority 2023, published 2026)
# Assays:
# SA = assay: MIC in physiological-mimicking environments (MHB); format: cell-based, S. aureus
# Excerpt: The complexities of the physiological environment often influence drug activity, particularly when cations in solution are implicated in their oligomerization-dependent mechanisms of action, such as for daptomycin. Binding of free drug to plasma proteins effectively reduces the available free concentration of the drug capable of killing bacteria, resulting in lower observable activity. We tested MIC values of DM4P and DM6P in the presence of human serum albumin (40 g L^−1) and high salt concentrations (Table 4). Under these conditions, the antimicrobial activity was minimally affected by these environmental factors, with MICs remaining within a 2-fold level.
# MRSA [1] = assay: Transmission electron microscopy of treated cells; format: cell-based, S. aureus; conditions: 4 μg mL^−1 for 30 minutes
# Procedure: Damage to the bacterial cell membrane was observed by transmission electron microscopy (TEM). S. aureus cells were incubated with DM6P at 4 μg mL^−1 for 30 minutes and fixed immediately to preserve the membrane ultrastructure as close to the point of cell death as possible. […] In FIG. 7d, cytoplasmic membrane separation, which is a key hallmark of plasmolysis was also observed in a cell, presumably in an earlier stage of death prior to leakage of intracellular components. These observations are consistent with micrographs from cells treated by membrane active AMPs Gramicidin S and PGLa. Taken together, these morphological features are in line with the central idea that TPP-COEs induce damage to the cellular membrane, similar to previously studied COEs. Cellular leakage, protein delocalization and inactivation, and small-molecule permeation are downstream observations frequently associated with cell membrane perturbations.
# A mid-log culture of MRSA was treated either with DM6P at 4 Ig mL^−1 or PBS (control) and incubated for 30 minutes. Cells were then fixed with 4% glutaraldehyde at 4° C. overnight and collected by centrifugation (7000 rpm, 10 minutes). The cell pellets were post-fixed with 0.2% OsO4, serially dehydrated in a graded ethanol series, and embedded in an epoxy resin. […]
# PAO1 = assay: Live-dead staining (SYTO-9/PI) fluorescence microscopy; format: cell-based, P. aeruginosa; conditions: PAO1, 16 μg mL^−1 for 30 minutes
# Procedure: Membrane damage induced by COE treatment was also confirmed by fluorescence microscopy. A combination of SYTO-9 and PI is commonly employed as a live-dead stain to distinguish cells with permeabilized membranes. […] Combined with PI, the contrast between the colours is employed as a visual indicator of membrane damage. PAO1 cells exposed to 16 μg mL^−1 of DM6P for 30 minutes were subsequently stained with both dyes and imaged directly.
# Cell membrane integrity was determined using LIVE/DEAD™ BacLight™ bacterial viability kit L7007 (ThermoFisher, USA) according to the manufacturer's protocol. Bacteria cells were collected from mid-log cultures by centrifugation (7000 rpm, 10 minutes). The media was removed, and the bacteria was washed with PBS twice and diluted to a concentration of about 1×10^7 CFU per mL. […] A mixture of the dyes SYTO-9 and PI dissolved in DMSO were added to the suspension at final concentrations of 5 μM and 30 μM respectively. The bacteria were then incubated in the dark for 15 min. Samples were prepared by aliquoting 5 μl onto a clean glass slide, trapped with an 18 mm coverslip and imaged on an epifluorescence microscope (Leica Thunder Imager).
# [2] = mice
# Procedure: At the end-point, mice were sacrificed and the individual organs and blood samples were collected. Tissues were fixed in 10% neutral-buffered formalin (NBF) for 48 hours and subjected to H&E staining and examination. Clinical blood biomarkers were analysed with a Pointcare® cM4 Blood Chemistry Analyzer (Tianjin MNCHIP Technologies Co., Ltd) according to the manufacturer's protocol.
# [3] = phosphate-buffered saline; below 10 μg mL^−1 estimated by turbidimetric screening
# Procedure: The solubility of all the TPP derivatives was determined in phosphate-buffered saline (PBS) (Table S3).
# [4] = system: Staphylococcus pseudintermedius; assay: Mouse wound infection model, S. pseudintermedius; format: in vivo, mice; conditions: for average CFU: S. pseudintermedius mouse wound
# Excerpt: Staphylococcus pseudintermedius (SP) is particularly pathogenic towards dogs, with skin infections such as pyoderma being characterized by a lengthy treatment period and high treatment failure due to antimicrobial resistance. Here, we show high in vivo antimicrobial efficacy of compounds of FIG. 11 in a mouse wound infection model, featuring over a 3-log reduction in bacterial load at low concentrations. The grouping tested with saline has an average CFU of 5.16×10^8 CFU/g. The grouping tested with DM6P (0.1 mg/kg) has an average CFU of 1.62×10^7 CFU/g. The grouping tested with DM6P (0.25 mg/kg) has an average CFU of 5.51×10^5 CFU/g.
# For testing against Staphylococcus pseudintermedius, C57BL/6[SPF] mice (female, 18-20 g) were first acclimated, weighed and grouped based on body weight into 3 groups. Mice were anaesthetized and the hair at the back will be shaved and removed. A 6 mm-diameter excisional wound was created on the back of each mouse, and log-phase Staphylococcus pseudintermedius (Sp strain) (in 5 μL PBS) will be inoculated onto the wound. A 3M tegaderm will be used to cover the wound site from contamination. 2 h post infection, the groups were tested with saline, DM6P (0.1 mg/kg) and DM6P (0.25 mg/kg) respectively, by adding directly to wound site. At 12 h and 24 h post infection, sampling and colony enumeration were conducted. At 24 h post infection, all mice were sacrificed and the wound tissue harvested into 1 mL PBS.
# MRSA [5] = assay: Resistance development by serial passaging at 0.5× MIC; format: cell-based, S. aureus
# Procedure: The non-specific action of membrane-active antibiotics lends itself to minimal development of resistance development due to the large metabolic burden involved, unlike traditional antibiotics with a well-defined enzymatic target. Based on this premise, we passaged bacteria incubated with DM6P, or ciprofloxacin (control), at 0.5× MIC to investigate the adaptation of bacteria towards external antibiotic stress. As a control, treatment of MRSA with ciprofloxacin gave rise to antibiotic-resistant mutants within 4 passages, see FIG. 4a. […] Combined with its broad spectrum of activity, this feature opens opportunities for the use of COE antimicrobial agents to address polymicrobial infections with a lower rate of emerging antibiotic resistance.
# [6] = 0.25 mg kg^−1, blood after 14 days, mean ± s.d. (n = 3)
smiles,measurement,setting,value
COc1cc(/C=C/c2ccc(OCCCCCC[P+](c3ccccc3)(c3ccccc3)c3ccccc3)c(OC)c2)ccc1OCCCCCC[P+](c1ccccc1)(c1ccccc1)c1ccccc1.[I-].[I-] [DM6P],MIC CaCl2,SA; CaCl2 1 mM,1 mg/L
same,MIC MgCl2,SA; MgCl2 1.25mM,1 mg/L
same,MIC NaCl,SA; NaCl 300 mM,1 mg/L
same,MIC HSA,SA; human serum albumin 40 g L^−1,1 mg/L
same,MIC —,SA; no additive,1 mg/L
same,membrane damage by TEM,MRSA [1],visible cellular shrinkage and membrane disintegration
same,PI staining in live-dead stain,PAO1,clear staining by PI
same,ALB (albumin),[2]; [6],30 ± 3.3 g/L
same,ALT (alanine transaminase),[2]; [6],38.7 ± 4.1 U/L
same,AST (aspartate aminotransferase),[2]; [6],205 ± 50.7 U/L
same,BUN (blood urea nitrogen),[2]; [6],6.7 ± 0.3 mM
same,CRE,[2]; [6],63.7 ± 10.1 µM
same,GGT (gamma-glutamyl transferase),[2]; [6],0.6 ± 0.1 U/L
same,GLO (globulin),[2]; [6],18.6 ± 1.5 g/L
same,TBIL (total bilirubin),[2]; [6],2.9 ± 0.5 µM
same,TP (total protein),[2]; [6],48.6 ± 1.9 g/L
same,blood biomarker levels compared to saline-treated controls,"[2]; 0.25 mg/kg, after 14 days",no significant difference
same,H&E staining of the major organs,"[2]; DM6P treated, 14 days post-treatment",did not reveal any abnormal signs
same,solubility in PBS,[3],0.108 mg/mL
same,average CFU,[4]; 0.1 mg/kg,1.62×10^7 CFU/g
same,average CFU,[4]; 0.25 mg/kg,5.51×10^5 CFU/g
same,tolerability (side effects),"[4]; mice, following compound administration",did not show any negative side effects
same,resistance development,MRSA [5],did not induce any observable resistant mutants
